Experimental data reported in ChEMBL document CHEMBL5518206, “Hit-to-Lead Identification and Validation of a Triaromatic Pleuromutilin Antibiotic Candidate” (J Med Chem, 2024).
The source made the active and inactive calls. The rule behind the calls is not given here.

Key:
Staphylococcus aureus [1] = experiment: (§1) Induction of resistant development in lefamulin 5 passages resistance developed Staphylococcus aureus USA300 FPR3757 assessed as fold increase in MIC at sub-MIC concentration measured after 22 passages with conjugate by serial passage assay; type: functional
Staphylococcus aureus [2] = experiment: Induction of resistant development in linezolid 5 passages resistance developed Staphylococcus aureus USA300 FPR3757 assessed as fold increase in MIC at sub-MIC concentration measured after 18 passages with conjugate by serial passage assay; type: functional
Staphylococcus aureus [3] = experiment: Induction of resistant development in lefamulin 5 passages resistance developed Staphylococcus aureus USA300 FPR3757 assessed as fold increase in MIC at sub-MIC concentration measured after 9 passages with conjugate by serial passage assay; type: functional
[4] = biological target: Voltage-gated inwardly rectifying potassium channel KCNH2 (Homo sapiens, UniProt Q12809); experiment: Inhibition of K+ ion channel activity of hERG; type: toxicity
Chain of Voltage-gated inwardly rectifying potassium channel KCNH2 (Q12809 whole entry): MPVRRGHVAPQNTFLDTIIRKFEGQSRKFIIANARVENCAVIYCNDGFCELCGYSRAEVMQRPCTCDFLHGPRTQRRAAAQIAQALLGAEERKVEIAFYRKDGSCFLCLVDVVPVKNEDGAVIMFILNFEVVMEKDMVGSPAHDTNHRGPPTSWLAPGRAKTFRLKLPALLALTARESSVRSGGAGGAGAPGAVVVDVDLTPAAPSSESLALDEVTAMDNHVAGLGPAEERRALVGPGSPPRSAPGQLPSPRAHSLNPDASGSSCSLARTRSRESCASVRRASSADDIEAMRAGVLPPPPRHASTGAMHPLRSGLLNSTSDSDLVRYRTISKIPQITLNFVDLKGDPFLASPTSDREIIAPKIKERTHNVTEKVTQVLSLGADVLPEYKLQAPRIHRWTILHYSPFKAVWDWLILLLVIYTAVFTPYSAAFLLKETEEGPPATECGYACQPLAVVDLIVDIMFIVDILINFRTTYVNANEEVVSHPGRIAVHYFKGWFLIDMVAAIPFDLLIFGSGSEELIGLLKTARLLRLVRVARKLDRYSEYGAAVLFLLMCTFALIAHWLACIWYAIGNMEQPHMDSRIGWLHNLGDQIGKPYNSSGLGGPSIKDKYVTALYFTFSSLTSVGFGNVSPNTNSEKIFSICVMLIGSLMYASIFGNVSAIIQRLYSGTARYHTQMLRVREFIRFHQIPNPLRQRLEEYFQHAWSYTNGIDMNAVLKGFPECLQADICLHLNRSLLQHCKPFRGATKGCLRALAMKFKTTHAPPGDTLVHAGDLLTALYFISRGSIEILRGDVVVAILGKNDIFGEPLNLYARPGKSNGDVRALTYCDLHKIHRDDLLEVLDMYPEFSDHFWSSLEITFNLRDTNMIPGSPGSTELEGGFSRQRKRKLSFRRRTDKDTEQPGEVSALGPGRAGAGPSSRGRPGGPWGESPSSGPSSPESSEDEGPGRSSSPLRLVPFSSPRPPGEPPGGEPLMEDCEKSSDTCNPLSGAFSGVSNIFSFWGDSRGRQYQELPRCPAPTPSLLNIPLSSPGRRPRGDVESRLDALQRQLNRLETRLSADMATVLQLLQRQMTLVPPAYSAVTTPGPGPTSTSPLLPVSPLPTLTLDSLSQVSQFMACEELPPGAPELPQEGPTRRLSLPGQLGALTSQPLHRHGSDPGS

Staphylococcus aureus [5] = experiment: Induction of resistant development in lefamulin 5 passages resistance developed Staphylococcus aureus USA300 FPR3757 assessed as fold increase in MIC at sub-MIC concentration measured after 18 passages with conjugate by serial passage assay; type: functional
[6] = biological target: ATP-dependent translocase ABCB1 (Homo sapiens, UniProt P08183); experiment: Inhibition of P-gp in human Caco-2 cells using digoxin as substrate; type: cell-based
Chain of ATP-dependent translocase ABCB1 (P08183 whole entry): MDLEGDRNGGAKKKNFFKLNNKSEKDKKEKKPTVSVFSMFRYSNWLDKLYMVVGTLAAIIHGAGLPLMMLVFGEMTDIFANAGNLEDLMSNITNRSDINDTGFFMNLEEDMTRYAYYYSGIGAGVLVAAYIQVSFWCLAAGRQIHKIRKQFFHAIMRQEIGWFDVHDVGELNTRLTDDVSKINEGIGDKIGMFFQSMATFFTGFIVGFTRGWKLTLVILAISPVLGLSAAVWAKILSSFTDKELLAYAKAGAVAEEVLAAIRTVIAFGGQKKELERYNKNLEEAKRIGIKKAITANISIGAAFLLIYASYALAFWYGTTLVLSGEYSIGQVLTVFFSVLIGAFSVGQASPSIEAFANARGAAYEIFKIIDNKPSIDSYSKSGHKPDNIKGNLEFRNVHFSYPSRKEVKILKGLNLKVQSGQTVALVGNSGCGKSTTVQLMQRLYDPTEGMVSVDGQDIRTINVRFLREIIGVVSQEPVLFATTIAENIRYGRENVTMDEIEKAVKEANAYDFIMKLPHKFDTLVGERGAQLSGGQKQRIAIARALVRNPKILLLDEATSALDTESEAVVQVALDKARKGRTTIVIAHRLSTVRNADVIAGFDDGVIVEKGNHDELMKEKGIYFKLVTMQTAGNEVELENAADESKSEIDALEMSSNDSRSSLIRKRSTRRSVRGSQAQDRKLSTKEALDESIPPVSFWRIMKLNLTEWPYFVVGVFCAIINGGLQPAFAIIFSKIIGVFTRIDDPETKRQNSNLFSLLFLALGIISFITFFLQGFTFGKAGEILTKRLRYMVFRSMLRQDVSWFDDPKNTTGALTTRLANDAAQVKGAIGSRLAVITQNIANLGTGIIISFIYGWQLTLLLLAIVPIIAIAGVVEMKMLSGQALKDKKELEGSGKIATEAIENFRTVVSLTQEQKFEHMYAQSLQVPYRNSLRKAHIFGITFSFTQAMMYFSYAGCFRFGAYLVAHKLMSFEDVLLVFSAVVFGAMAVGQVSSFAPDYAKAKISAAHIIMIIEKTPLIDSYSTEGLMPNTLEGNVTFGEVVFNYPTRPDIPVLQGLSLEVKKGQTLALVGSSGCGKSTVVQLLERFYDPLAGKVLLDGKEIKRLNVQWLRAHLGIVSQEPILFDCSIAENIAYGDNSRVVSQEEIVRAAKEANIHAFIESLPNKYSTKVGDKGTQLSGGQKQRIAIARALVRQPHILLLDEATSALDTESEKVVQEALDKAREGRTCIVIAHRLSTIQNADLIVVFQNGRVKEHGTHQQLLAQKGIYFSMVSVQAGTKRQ

[7] = Efflux ratio of apparent permeability from basolateral to apical side over apical to basolateral side in human Caco-2 cells at 10 uM; type: ADME, cell-based
Staphylococcus aureus [8] = experiment: as §1, with “-(6-(6-(Piperazin-1-y1)-9H-purin-9-y)methyl)pyridin-3-y1)-1H-1,2,3-triazol-1-yl)-22-deoxypleuromutilin-16” for “lefamulin 5”, “5” for “22”; type: functional
Staphylococcus aureus [9] = experiment: Antibacterial activity against multi drug-resistant Staphylococcus aureus USA300 FPR3757 assessed as reduction in bacterial growth at 1 times of MIC concentration measured after 24 hrs by time-kill assay; type: functional, organism-based
Staphylococcus aureus [10] = experiment: Induction of resistant development in lefamulin 5 passages resistance developed Staphylococcus aureus USA300 FPR3757 assessed as fold increase in MIC at sub-MIC concentration measured after 5 passages with conjugate by serial passage assay; type: functional
[11] = Clearance in pig plasma at 3 mg/kg, iv measured upto 240 mins by LC-MS/MS analysis; type: ADME, organism-based, Sus scrofa
[12] = Half life in pig plasma at 3 mg/kg, iv measured upto 240 mins by LC-MS/MS analysis; type: ADME, organism-based, Sus scrofa
[13] = AUC (0 to infinity) in pig urine at 10 mg/kg, po measured upto 240 mins by LC-MS/MS analysis; type: ADME, organism-based, Sus scrofa; details: in vivo, 4 h
[14] = Cmax in pig urine at 10 mg/kg, po measured upto 240 mins by LC-MS/MS analysis; type: ADME, organism-based, Sus scrofa
[15] = Tmax in pig urine at 3 mg/kg, iv measured upto 240 mins by LC-MS/MS analysis; type: ADME, organism-based, Sus scrofa
[16] = Half life in pig urine at 3 mg/kg, iv measured upto 240 mins by LC-MS/MS analysis; type: ADME, organism-based, Sus scrofa
[17] = AUC (0 to infinity) in pig urine at 3 mg/kg, iv measured upto 240 mins by LC-MS/MS analysis; type: ADME, organism-based, Sus scrofa; details: in vivo, 4 h
[18] = Tmax in NMRI female mouse at 30 mg/kg, iv by HPLC analysis; type: ADME, organism-based; details: in vivo
[19] = Elimination rate constant in pig plasma at 3 mg/kg, iv measured upto 240 mins by LC-MS/MS analysis; type: ADME, organism-based, Sus scrofa
[20] = Bioavailability in NMRI female mouse at 20 mg/kg, sc by HPLC analysis; type: ADME, organism-based; details: in vivo
[21] = Half life in NMRI female mouse at 60 mg/kg, sc by HPLC analysis; type: ADME, organism-based; details: in vivo
[22] = Elimination rate constant in pig urine at 3 mg/kg, iv measured upto 240 mins by LC-MS/MS analysis; type: ADME, organism-based, Sus scrofa
[23] = Bioavailability in NMRI female mouse at 30 mg/kg, po by HPLC analysis; type: ADME, organism-based; details: in vivo
[24] = Volume of distribution in pig plasma at 3 mg/kg, iv measured upto 240 mins by LC-MS/MS analysis; type: ADME, organism-based, Sus scrofa
[25] = Volume of distribution in NMRI female mouse at 20 mg/kg, sc by HPLC analysis; type: ADME, organism-based; details: in vivo
[26] = Half life in NMRI female mouse at 20 mg/kg, sc by HPLC analysis; type: ADME, organism-based; details: in vivo
[27] = Cmax in NMRI female mouse at 20 mg/kg, sc by HPLC analysis; type: ADME, organism-based; details: in vivo
[28] = Clearance in NMRI female mouse at 60 mg/kg, sc by HPLC analysis; type: ADME, organism-based; details: in vivo
[29] = Elimination rate constant in NMRI female mouse at 20 mg/kg, sc by HPLC analysis; type: ADME, organism-based; details: in vivo
[30] = Cmax in NMRI female mouse at 30 mg/kg, iv by HPLC analysis; type: ADME, organism-based; details: in vivo
[31] = Volume of distribution in NMRI female mouse at 60 mg/kg, sc by HPLC analysis; type: ADME, organism-based; details: in vivo
[32] = Tmax in pig plasma at 3 mg/kg, iv measured upto 240 mins by LC-MS/MS analysis; type: ADME, organism-based, Sus scrofa
[33] = Bioavailability in NMRI female mouse at 60 mg/kg, sc by HPLC analysis; type: ADME, organism-based; details: in vivo
[34] = Tmax in pig plasma at 10 mg/kg, po measured upto 240 mins by LC-MS/MS analysis; type: ADME, organism-based, Sus scrofa
[35] = AUC (0 to infinity) in NMRI female mouse at 20 mg/kg, sc by HPLC analysis; type: ADME, organism-based; details: in vivo
[36] = Plasma Concentration in pig at 3 mg/kg, iv measured upto 240 mins by LC-MS/MS analysis; type: ADME, organism-based, Sus scrofa
[37] = Clearance in pig urine at 3 mg/kg, iv measured upto 240 mins by LC-MS/MS analysis; type: ADME, organism-based, Sus scrofa
[38] = Elimination rate constant in pig urine at 10 mg/kg, po measured upto 240 mins by LC-MS/MS analysis; type: ADME, organism-based, Sus scrofa
[39] = Elimination rate constant in NMRI female mouse at 30 mg/kg, iv by HPLC analysis; type: ADME, organism-based; details: in vivo
[40] = AUC (0 to infinity) in NMRI female mouse at 30 mg/kg, iv by HPLC analysis; type: ADME, organism-based; details: in vivo
[41] = Tmax in NMRI female mouse at 20 mg/kg, sc by HPLC analysis; type: ADME, organism-based; details: in vivo
[42] = Bioavailability in pig plasma at 10 mg/kg, po measured upto 240 mins by LC-MS/MS analysis; type: ADME, organism-based, Sus scrofa
[43] = Volume of distribution in NMRI female mouse at 30 mg/kg, iv by HPLC analysis; type: ADME, organism-based; details: in vivo
[44] = Elimination rate constant in pig plasma at 10 mg/kg, po measured upto 240 mins by LC-MS/MS analysis; type: ADME, organism-based, Sus scrofa
[45] = Clearance in pig plasma at 10 mg/kg, po measured upto 240 mins by LC-MS/MS analysis; type: ADME, organism-based, Sus scrofa
[46] = Half life in NMRI female mouse at 30 mg/kg, iv by HPLC analysis; type: ADME, organism-based; details: in vivo
[47] = Tmax in pig urine at 10 mg/kg, po measured upto 240 mins by LC-MS/MS analysis; type: ADME, organism-based, Sus scrofa

In the case of `C=C[C@]1(C)C[C@@H](OC(=O)CS[C@@H]2CC[C@@H](N)C[C@H]2O)[C@]2(C)[C@H](C)CC[C@]3(CCC(=O)[C@H]32)[C@@H](C)[C@@H]1O` [LEFAMULIN], the fold change (FC) (Staphylococcus aureus [1]) is reported as 32, the fold change (FC) (Staphylococcus aureus [2]) is reported as 16 and the fold change (FC) (Staphylococcus aureus [3]) is reported as 16. The IC50 [4] was 78.2 µM, the fold change (FC) (Staphylococcus aureus [5]) was 32 and the IC50 [6] was 34.1 µM. For the same compound, the efflux ratio at 10 µM [7] was 68, the fold change (FC) (Staphylococcus aureus [8]) was 8 and the Activity (Staphylococcus aureus [9]) was “inactive”. It also gave a fold change (FC) (Staphylococcus aureus [10]) of 4.
In the case of `C=C[C@]1(C)C[C@@H](OC(=O)Cn2cc(-c3ccc(Cn4cnc5c(N6CCNCC6)ncnc54)nc3)nn2)[C@]2(C)[C@H](C)CC[C@]3(CCC(=O)[C@H]32)[C@@H](C)[C@@H]1O`, the clearance [11] is reported as 84.7 mL/min/kg, the half-life [12] is reported as 1.25 h and the AUC [13] is reported as 22.5 µg/mL/min. It also gave a Cmax [14] of 114 ng/mL, a Tmax [15] of 1 h and a half-life [16] of 0.46 h. It also gave an AUC [17] of 821 µg/mL/min, a Tmax [18] of 0 h and a k el at 4 h [19] of 0.000155 s⁻¹. For the same compound, the bioavailability [20] was 52%, the half-life [21] was 1.9 h and the k el at 4 h [22] was 0.000418 s⁻¹. It also gave a bioavailability [23] of 0.3%, a Vd [24] of 3.46 L/kg and a Vd [25] of 17.1 L/kg. It also gave a half-life [26] of 2.07 h, a Cmax [27] of 1180 ng/mL and a CL/F [28] of 140 mL/min/kg. The k el [29] was 9.33e-05 s⁻¹, the Cmax [30] was 8560 ng/mL and the Vd [31] was 22 L/kg. The Tmax [32] was 0 h, the bioavailability [33] was 33% and the Tmax [34] was 0.25 h. The AUC [35] was 222 µg/mL/min, the concentration at 4 h [36] was 866 ng/mL and the CL renal at 4 h [37] was 3.67 mL/min/kg. It also gave a k el at 4 h [38] of 8.67e-05 s⁻¹, a k el [39] of 0.000218 s⁻¹ and an AUC [40] of 643 µg/mL/min. For the same compound, the Tmax [41] was 0.25 h, the bioavailability [42] was 6% and the Vd [43] was 3.5 L/kg. The k el at 4 h [44] was 0.000518 s⁻¹, the CL/F [45] was 1420 mL/min/kg and the half-life [46] was 0.88 h. It also gave a Tmax [47] of 1 h.
